Source: patent publication US8586620B2, “Substituted indole compounds having NOS inhibitory activity” (NeurAxon, Inc., priority 2005, dated 2013)
pIC50: −log10 of the molar value. Where a name gives a salt, the structure may show the parent alone. Read-outs that look alike come from different tables or passages of the source.

Legend:
[1] = biological target: human neuronal constitutive NOS (nNOS) (Homo sapiens (Human), UniProt P29475); experiment: Human nNOS enzyme assay, radiometric [3H]L-arginine to [3H]L-citrulline;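 further: recombinant human nNOS expressed in baculovirus-infected Sf9 cells, enzyme activity measured radiometrically as turnover of [3H]L-arginine into [3H]L-citrulline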
Experimental: (§2) In a radiometric method, NO synthase activity was determined by measuring the conversion of [^3H]L-arginine to [^3H]L-citrulline.
(§3) The total volume of the reaction mixture was 150 μL in every well. […] The reaction was stopped by adding 20 μL of ice-cold buffer containing 100 mM HEPES, 3 mM EGTA, 3 mM EDTA, pH=5.5. [^3H]L-citrulline was separated by DOWEX (ion-exchange resin DOWEX 50 W X 8-400, SIGMA) and the DOWEX was removed by spinning at 12,000 g for 10 min in the centrifuge. […] All assays were performed at least in duplicate. Standard deviations were 10% or less.

[2] = biological target: human endothelial constitutive NOS (eNOS) (Homo sapiens (Human), UniProt P29474); experiment: Human eNOS enzyme assay, radiometric;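 further: recombinant human eNOS expressed in baculovirus-infected Sf9 cells, activity read as [3H]L-arginine turned into [3H]L-citrulline, the product isolated on ion-exchange resin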
Experimental: as §2, §3

[3] = tested on: L5/L6 spinal nerve ligation; experiment: Chung spinal nerve ligation (SNL) model of neuropathic pain; format: in vivo; settings: rats; for tactile hyperthesia: L5/L6 spinal nerve ligation, FIGS. 20 and 22; for thermal hyperalgesia: one standard dose (10 mg/kg) injected IP, FIG. 19, 21
Experimental: (a) Chung Model of Injury-induced Neuropathic-like Pain: The experimental designs for the Chung Spinal Nerve Ligation SNL Model assay for neuropathic pain are depicted in FIG. 18. Nerve ligation injury was performed according to the method described by Kim and Chung (Kim and Chung, Pain 50:355-363, 1992). This technique produces signs of neuropathic dysesthesias, including tactile allodynia, thermal hyperalgesia, and guarding of the affected paw. Rats were anesthetized with halothane and the vertebrae over the L4 to S2 region were exposed. The L5 and L6 spinal nerves were exposed, carefully isolated, and tightly ligated with 4-0 silk suture distal to the DRG. After ensuring homeostatic stability, the wounds were sutured, and the animals allowed to recover in individual cages. Sham-operated rats were prepared in an identical fashion except that the L5/L6 spinal nerves were not ligated. […] After a period of recovery following the surgical intervention, rats show enhanced sensitivity to painful and normally non-painful stimuli.

[4] = biological target: human inducible NOS (iNOS) (Homo sapiens (Human), UniProt P35228); experiment: Human iNOS enzyme assay, radiometric; format: biochemical
Source text: Standard deviations were 10% or less.

Rat nNOS = Rat nNOS (Rattus norvegicus (Rat), UniProt P29476); experiment: Rat nNOS hemoglobin capture assay; format: biochemical; settings: Table 2a
Source text: (§1) The NOS isoforms used in this example were recombinant enzymes expressed in E. coli. Rat nNOS was expressed and purified as described previously (Roman et al., Proc. Natl. Acad. Sci. USA 92:8428-8432, 1995). The bovine eNOS isoform was isolated as reported (Martasek et al., Biochem. Biophys. Res. Commun. 219:259-365, 1996) and murine macrophage iNOS was expressed and isolated according to the procedure of Hevel et al. (J. Biol. Chem. 266:22789-22791, 1991). IC50 values and percent inhibition of NOS by the compounds of the invention were determined under initial velocity measurement conditions with the hemoglobin capture assay as previously described (Hevel and Marletta, Methods Enzymol. 133:250-258, 1994). In this assay, nitric oxide reacts with oxyhemoglobin to yield methemoglobin, which was detected at 401 nm (e=19,700 M^−1 cm^−1) on a Perkin-Elmer Lamda 10 UV/vis spectrophotometer. The assays were performed using varying test compound concentrations. Assay mixtures for nNOS or eNOS contained […], 1.6 mM CaCl2, 11.6 mg/mL calmodulin, […], 6.5 mM BH4 and […] in 100 mM Hepes (pH 7.5). Assay mixtures for iNOS contained 10 mM of L-arginine, […], 6.5 mM BH4 and […] in 100 mM Hepes (pH 7.5). All assays were conducted in a final volume of 600 μL and were initiated with enzyme.

murine macrophage iNOS = murine macrophage iNOS (Mus musculus (Mouse), UniProt P29477); experiment: Murine iNOS hemoglobin capture assay; format: biochemical
Source text: as §1

bovine eNOS = bovine eNOS (Bos taurus (Bovine), UniProt P29473); experiment: Bovine eNOS hemoglobin capture assay; format: biochemical
Source text: as §1

[5] = tested on: rat cortical neuronal cultures; experiment: Neuroprotection of rat cortical cells against NMDA challenge; format: cell-based; settings: 60-minute pre-incubation; 30 minutes 25 μM NMDA; propidium iodide after 24 hrs; FIG. 1
Experimental: According to a previously reported procedure (Tremblay et al., J Neurosci. 20(19):7183-92, 2000), test compounds were added for a 60-minute pre-incubation period to rat cortical neuronal cultures, which were then exposed for 30 minutes to 25 μM NMDA in buffer. After 24 hrs cultures were treated with propidium iodide and the % cell death determined and compared to control cells.

5-HT1B = 5-HT1B (Rattus norvegicus (Rat), UniProt P28564); experiment: 5-HT1B binding assay (agonist radioligand), rat cerebral cortex
Sequence of 5-HT1B (P28564 whole entry): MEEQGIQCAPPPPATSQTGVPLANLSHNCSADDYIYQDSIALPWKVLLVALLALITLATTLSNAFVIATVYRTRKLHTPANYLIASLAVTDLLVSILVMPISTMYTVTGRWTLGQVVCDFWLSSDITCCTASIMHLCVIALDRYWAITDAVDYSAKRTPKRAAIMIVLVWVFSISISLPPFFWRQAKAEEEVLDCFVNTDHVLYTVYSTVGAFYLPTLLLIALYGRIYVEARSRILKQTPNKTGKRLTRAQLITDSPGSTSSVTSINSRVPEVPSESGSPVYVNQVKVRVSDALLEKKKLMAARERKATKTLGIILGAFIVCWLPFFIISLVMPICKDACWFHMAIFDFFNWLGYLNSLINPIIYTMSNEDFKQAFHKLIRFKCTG
Experimental: 5-HT1D binding assays (agonist radioligand)were performed using bovine caudate membranes according to the methods of Heuring and Peroutka (J. Neurosci 1987, 7: 894-903). 5-HT1B (rat cerebral cortex) binding assays (agonist radioligand) were performed according to the method of Hoyer et. al. (Eur. J. Pharmacol. 1995, 118: 1-12). For the purpose of result analysis, the specific ligand binding to the receptors is defined as the difference between the total binding and the nonspecific binding as determined in the presence of an excess of unlabelled ligand. The results are expressed as a percent of control specific binding obtained in the presence of the test compounds. IC50 values (concentration causing a half-maximal inhibition of control specific binding) and Hill coefficients (nH) were determined by non-linear regression analysis of the competition curves using Hill equation curve fitting and the inhibition constants (Ki) were calculated from the Cheng Prusoff equation (Ki=IC50/(1+(L/KD)), where L=concentration of radioligand in the assay, and KD=affinity of the radioligand for the receptor).

hindpaw allodynia = experiment: Experimental migraine model, inflammatory soup on dura, hindpaw allodynia
cardiogenic shock = settings: randomized trial of 30 patients; reduced from 67%; cited from earlier work
persistent shock = settings: up to 30 days; 11 patients with persistent shock; cited from earlier work
migraine = settings: single i.v. administration; human migraine; cited from earlier work
migraine attack = settings: open pilot study; cited from earlier work
[6] = Table 2a, hemoglobin capture assay, read-out: Murine iNOS
[7] = Table 2a, hemoglobin capture assay, read-out: Bovine eNOS
[8] = read-out: nNOSh, Table I, human NOS, dihydrochloride or monohydrochloride salts
[9] = read-out: eNOSh, Table I, human NOS, dihydrochloride or monohydrochloride salts
[10] = Table I, human NOS, dihydrochloride or monohydrochloride salts, read-out: iNOSh
[11] = 6 mg/kg i.v. 10 minutes prior to IS

CN1CCC[C@H]1CCc1c[nH]c2ccc(NC(=N)c3cccs3)cc12 (as salt: hydrochloride) [Compound 147, (R)-N-(3-(2-(1-Methylpyrrolidin-2-yl)ethyl)-1H-indol-5-yl)thiophene-2-carboximidamide]
melting point: 212 °C

CN1CCCC1CCn1ccc2ccc(NC(=N)c3cccs3)cc21 (stereo not drawn) [32(+)]
pIC50 ([1]; read-out: Human nNOS, Table 2b): 6.49
pIC50 ([2]; read-out: Human eNOS, Table 2b): 4.80
tactile hyperthesia [3]: reversal of tactile hyperthesia
thermal hyperalgesia [3]: clear antihyperalgesic effect
pIC50 ([4]; Table 2b, read-out: Human iNOS): 4.14

CN1CCCC1CCn1ccc2ccc(NC(=N)c3cccs3)cc21 (stereo not drawn) [32(−)]
pIC50 ([1]; read-out: Human nNOS, Table 2b): 6.70
pIC50 ([2]; read-out: Human eNOS, Table 2b): 4.62
tactile hyperthesia [3]: reversal of tactile hyperthesia
thermal hyperalgesia [3]: clear antihyperalgesic effect
pIC50 ([4]; Table 2b, read-out: Human iNOS): 4.14

CCSC(=N)Nc1ccc2[nH]ccc2c1 [Compound 4]
pIC50 (Rat nNOS): 4.53
pIC50 (murine macrophage iNOS; [6]): 4.33
pIC50 (bovine eNOS; [7]): 3.79

N=C(Nc1ccc2[nH]ccc2c1)c1cccs1 [Compound 5]
pIC50 (Rat nNOS): 4.24
pIC50 (bovine eNOS; [7]): 3.19

CN(C)CCc1c[nH]c2ccc(NC(=N)c3cccs3)cc12 [Compound 18]
e/n ([1]; Table I, ratio eNOSh/nNOSh): 10
pIC50 ([1]; read-out: Human nNOS, Table 2b): 5.59
pIC50 [1, 8]: 5.59
pIC50 ([2]; read-out: Human eNOS, Table 2b): 4.59
pIC50 [2, 9]: 4.59
protection of neuronal cells from death upon NMDA challenge [5]: protected neuronal cells from death
pIC50 ([4]; Table 2b, read-out: Human iNOS): 4.92
pIC50 [4, 10]: 4.92
pIC50 (Rat nNOS): 5.48
pIC50 (murine macrophage iNOS): 4.36
pIC50 (bovine eNOS): 3.61

N=C(Nc1ccc2ccn(CCc3ccccc3)c2c1)c1cccs1 [Compound 27]
pIC50 ([1]; read-out: Human nNOS, Table 2b): 4.92
pIC50 ([2]; read-out: Human eNOS, Table 2b): < 4.00
pIC50 ([4]; Table 2b, read-out: Human iNOS): 3.49
pIC50 (Rat nNOS): 4.84
pIC50 (murine macrophage iNOS; [6]): 3.80
pIC50 (bovine eNOS; [7]): < 3.52

CN1CCCC1CCn1ccc2ccc(NC(=N)c3cccs3)cc21 (stereo not drawn) [Compound 32]
pIC50 (Rat nNOS): 5.39
pIC50 (murine macrophage iNOS; [6]): 4.17
pIC50 (bovine eNOS; [7]): 5.21

CN1CC=C(c2c[nH]c3ccc(NC(=N)c4cccs4)cc23)CC1 [Compound 42, N-(3-(1-methyl-1,2,3,6-tetrahydropyridin-4-yl)-1H-indol-5-yl)thiophene-2-carboximidamide]
e/n [1]: 53
pIC50 [1, 8]: 6.04
pIC50 [2, 9]: 4.29
pIC50 [4, 10]: 4.70
pIC50 (5-HT1B): 6.80
development of hindpaw allodynia (hindpaw allodynia; [11]): prevents the development of hindpaw allodynia

CCN1CCC(c2c[nH]c3ccc(NC(=N)c4cccs4)cc23)CC1 [Compound 61, N-(3-(1-ethylpiperidin-4-yl)-1H-indol-5-yl)thiophene-2-carboximidamide]
melting point: 150 to 152 °C

CN1CCC[C@@H]1Cc1c[nH]c2ccc(NC(=N)c3cccs3)cc12 [Compound 97, (R)-N-(3-((1-Methylpyrrolidin-2-yl)methyl)-1H-indol-5-yl)thiophene-2-carboximidamide]
e/n ([1]; Table I, ratio eNOSh/nNOSh): 41
pIC50 [1, 8]: 6.08
pIC50 [2, 9]: 4.46
pIC50 (5-HT1B): 6.51
development of hindpaw allodynia (hindpaw allodynia; [11]): prevents the development of hindpaw allodynia

CN1CCC[C@H]1Cc1c[nH]c2ccc(NC(=N)c3cccs3)cc12 [Compound 105, (S)-N-(3-((1-methylpyrrolidin-2-yl)methyl)-1H-indol-5-yl)thiophene-2-carboximidamide]
e/n ([1]; Table I, ratio eNOSh/nNOSh): 29
pIC50 [1, 8]: 6.09
pIC50 [2, 9]: 4.64
pIC50 (5-HT1B): 6.54

CN1CCC(c2c[nH]c3ccc(NC(=N)c4cccs4)cc23)C1 (stereo not drawn) [Compound 110, N-(3-(1-methylpyrrolidin-3-yl)-1H-indol-5-yl)thiophene-2-carboximidamide]
e/n ([1]; Table I, ratio eNOSh/nNOSh): 90
pIC50 [1, 8]: 6.37
pIC50 [2, 9]: 4.41
pIC50 (5-HT1B): 6.31

CN1CCC(c2c[nH]c3ccc(NC(=N)c4ccco4)cc23)C1 (stereo not drawn) [Compound 111, N-(3-(1-methylpyrrolidin-3-yl)-1H-indol-5-yl)furan-2-carboximidamide]
pIC50 [1, 8]: 5.91
pIC50 [2, 9]: 4.47
pIC50 (5-HT1B): 5.96

N=C(Nc1ccc2[nH]cc(CCCN3CCOCC3)c2c1)c1cccs1 [Compound 181, N-(3-(3-morpholinopropyl)-1H-indol-5-yl)thiophene-2-carboximidamide]
e/n ([1]; Table I, ratio eNOSh/nNOSh): 9.9
pIC50 [1, 8]: 5.70
pIC50 [2, 9]: 4.51
pIC50 [4, 10]: 5.00

COC(=O)[C@@H](N)CCCNC(=N)N[N+](=O)[O-] [L-NAME]
patient mortality (cardiogenic shock): 27%

CN=C(N)NCCC[C@H](N)C(=O)O.Cl [L-NMMA, L-N^G methylarginine hydrochloride]
survival rate (persistent shock): 72%
response rate (migraine): 67%
development of hindpaw allodynia (hindpaw allodynia; 10 mg/kg i.v 10 minutes prior to IS): prevents the development of hindpaw allodynia

CNS(=O)(=O)Cc1ccc2[nH]cc(CCN(C)C)c2c1 [Sumatriptan, reference compound]
development of hindpaw allodynia (hindpaw allodynia; 1 mg/kg s.c. 5 minutes prior to soup, two hours after IS): prevention of the development of hindpaw allodynia

C/C1=C2/[N-][C@H]([C@H](CC(N)=O)[C@@]2(C)CCC(=O)NC[C@@H](C)OP(=O)([O-])O[C@H]2[C@@H](O)[C@@H](n3cnc4cc(C)c(C)cc43)O[C@@H]2CO)[C@]2(C)N=C(/C(C)=C3N=C(/C=C4N=C1[C@@H](CCC(N)=O)C\4(C)C)[C@@H](CCC(N)=O)[C@]\3(C)CC(N)=O)[C@@H](CCC(N)=O)[C@]2(C)CC(N)=O.[Co+3].[OH-] [hydroxycobalamin]
patients with reduction in the frequency of migraine attack of 50% (migraine attack): 53%
